Measurements published in US6316424A, “Sulfated phosphatidylinositols, their preparation and use of the same” (The Board of Trustees of the University of Illinois, priority 2000, dated 2001).
Structures can show the parent of a compound that is named as a salt.

Key:
[1] = system: HIV-1 virus; experiment: In vitro anti-HIV activity, XTT/formazan cell viability protection (NCI, method of Gustafson et al.); type: cell-based, HIV-1 (human lymphoblastoid cells); details: Human immunodeficiency virus 1, 168 h; Table 3; 7 days; PSL values normalized to SPI content
Description: A number of formulations of SPI and PSLs were prepared and their in vitro anti-HIV activity determined by the National Cancer Institute at the National Institutes of Health, Bethesda, Md., using the method of Gustafson et al, J. Nat. Can. Inst., 81(16), 1254-1258 (1989). Varying concentrations of each formulation were mixed with cultured human lymphoblastoid cells, then cocultivated with host cells chronically infected with HIV-1 virus at 37° C. After 7 days, the cell culture is incubated with a mixture of tetrazolium salt XTT and phenazine methylsulfate for 4 hours. […] Formazan absorbs visible light at 450 nm. Therefore, the amount of formazan produced is a direct measurement of cell viability and, consequently, an estimate of the anti-HIV activity of each formulation. Formazan production in normal, uninfected cells is labelled as control.
In particular, the following compositions were assayed for anti-HIV activity. The data and effective concentration (ED50), i.e., the minimum concentration that protects 50% of the cells against infection, of each composition are summarized in FIGS. 5-7 and the results summarized in Table 3. Control values were obtained by incubating lymphoblastoid cells with each formulation in the absence of HIV. […]

[2] = Surface tension / critical micelle concentration (Fisher Scientific Surface Tensiometer); type: physicochemical
Description: The surface activity of SPI also was determined. In this test, dilutions of SPI were prepared and the surface tension of each solution measured using a Fisher Scientific Surface Tensiometer. The critical micelle concentration (CMC) of SPI was estimated as the minimum concentration at which the surface tension remains constant. For SPI, the CMC is about 0.10 mg/mL. […] Accordingly, the addition of sulfate groups to PI alters its aqueous behavior, shifting the tendency of the phospholipid from forming vesicles to forming micelles.

Row | Molecule | EC50 [1] [µg/mL] | behavior on addition of water (in words) [2] | surface activity (in words) ([2]; surface tension measurements, compared with SPI)
1 | CC(C)Nc1cccnc1N1CCN(C(=O)c2cc3cc(NS(C)(=O)=O)ccc3[nH]2)CC1 [Delaviridine, Delaviridine mesylate, reference compound] | 0.031 |  | 
2 | phosphatidylinositol [PI] |  | formation of phosphatidylinositol liposomes | no similar surface activity
